Measurements as given in PubChem BioAssay AID330 (DTP/NCI, 2004).
Several values for one entry are separate records, joined by “and”; a condition that tells them apart may be missing. Equal entries are not always repeated. Toxic doses and inconclusive results are not listed.

Tested on: P388 leukemia ip, CD2F1 mice, survival T/C
Test: NCI In Vivo Anticancer Drug Screen. Data for tumor model P388 Leukemia (intraperitoneal) in CD2F1 (CDF1) mice
Details: endpoint: median survival time, higher = longer survival
Procedure, shortened: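 Mice carrying the transplanted tumor received test compound or vehicle. Survival was recorded in each group, and the value is the treated-group measurement divided by that of the vehicle-treated control group.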

[1] = dose: 50.0 mg/kg/injection, schedule: Q01DX005 (ip), vehicle: Klucel (hydroxypropylcellulose) (HPC)
[2] = dose: 100.0 mg/kg/injection, schedule: Q01DX005 (ip), vehicle: Klucel (hydroxypropylcellulose) (HPC)
[3] = dose: 200.0 mg/kg/injection, schedule: Q01DX005 (ip), vehicle: Klucel (hydroxypropylcellulose) (HPC)
[4] = dose: 25.0 mg/kg/injection, schedule: Q01DX009 (ip), vehicle: saline with Tween-80
[5] = dose: 50.0 mg/kg/injection, schedule: Q01DX009 (ip), vehicle: saline with Tween-80
[6] = dose: 100.0 mg/kg/injection, schedule: Q01DX009 (ip), vehicle: saline with Tween-80
[7] = dose: 200.0 mg/kg/injection, schedule: Q01DX009 (ip), vehicle: saline with Tween-80
[8] = dose: 100.0 mg/kg/injection, schedule: Q04DX003 (ip), vehicle: saline with Tween-80
[9] = dose: 200.0 mg/kg/injection, schedule: Q04DX003 (ip), vehicle: saline with Tween-80
[10] = dose: 400.0 mg/kg/injection, schedule: Q04DX003 (ip), vehicle: saline with Tween-80
[11] = dose: 50.0 mg/kg/injection, schedule: Q01DX005 (ip), vehicle: saline with Tween-80

For N#Cc1c(-c2ccccc2)c(-c2ccccc2)nn(CC(=O)O)c1=O, the T/C (dose: 12.5 mg/kg/injection, schedule: Q01DX005 (ip), vehicle: sodium bicarbonate) was 102 % of control, the T/C (dose: 25.0 mg/kg/injection, schedule: Q01DX005 (ip), vehicle: sodium bicarbonate) was 100 % of control and the T/C (dose: 25.0 mg/kg/injection, schedule: Q04DX002 (ip), vehicle: distilled water + Tween-80) was 101 % of control. For the same compound, the T/C (dose: 50.0 mg/kg/injection, schedule: Q01DX005 (ip), vehicle: sodium bicarbonate) was 101 % of control, the T/C (dose: 50.0 mg/kg/injection, schedule: Q04DX002 (ip), vehicle: distilled water + Tween-80) was 100 % of control and the T/C (dose: 100.0 mg/kg/injection, schedule: Q01DX005 (ip), vehicle: sodium bicarbonate) was 102 % of control. The T/C (dose: 100.0 mg/kg/injection, schedule: Q04DX002 (ip), vehicle: distilled water + Tween-80) was 101 % of control, the T/C (dose: 200.0 mg/kg/injection, schedule: Q01DX005 (ip), vehicle: sodium bicarbonate) was 92 % of control and the T/C (dose: 200.0 mg/kg/injection, schedule: Q04DX002 (ip), vehicle: distilled water + Tween-80) was 99 % of control.
NNC(=O)c1ccc(NC(=O)CSc2nc3ccccc3s2)cc1 was tested, and the T/C (dose: 12.5 mg/kg/injection, schedule: Q01DX009 (ip), vehicle: Klucel (hydroxypropylcellulose) (HPC)) was 99 % of control, the T/C (dose: 25.0 mg/kg/injection, schedule: Q01DX009 (ip), vehicle: Klucel (hydroxypropylcellulose) (HPC)) was 102 % of control and the T/C (dose: 50.0 mg/kg/injection, schedule: Q01DX009 (ip), vehicle: Klucel (hydroxypropylcellulose) (HPC)) was 101 % of control.
For N/N=C(/N)C1=NOCC1, the T/C (dose: 100.0 mg/kg/injection, schedule: Q04DX002 (ip), vehicle: saline) was 114 % of control and the T/C (dose: 200.0 mg/kg/injection, schedule: Q04DX002 (ip), vehicle: saline) was 106 % of control.
O=C(CSC1CCc2ccccc21)NNC(=O)Nc1ccc(Cl)cc1 (configuration not stated) was tested, and the T/C [1] was 90 % of control, the T/C [2] was 95 % of control and the T/C [3] was 89 % of control.
In the case of NS(=O)(=O)c1ccc(N=Cc2cnc3ccccc3n2)cc1, the T/C (dose: 5.0 mg/kg/injection, schedule: Q01DX009 (ip), vehicle: saline) is reported as 97 % of control, the T/C (dose: 10.0 mg/kg/injection, schedule: Q01DX009 (ip), vehicle: saline) is reported as 101 % of control and the T/C (dose: 20.0 mg/kg/injection, schedule: Q01DX009 (ip), vehicle: saline) is reported as 97 % of control.
C=COc1ccccc1C1=NC(C(C)(C)C)(C(C)(C)C)P(OC)(OC)(OC)O1 was tested, and the T/C (dose: 100.0 mg/kg/injection, schedule: Q04DX003 (ip), vehicle: saline) was 102 % of control, the T/C (dose: 200.0 mg/kg/injection, schedule: Q04DX003 (ip), vehicle: saline) was 108 % of control and the T/C (dose: 400.0 mg/kg/injection, schedule: Q04DX003 (ip), vehicle: saline) was 100 % of control.
COc1ccc(/C=C\c2cc(OC)c(OC)c(OC)c2)c(O)c1O was tested, and the T/C (dose: 3.12 mg/kg/injection, schedule: Q01DX009 (ip), vehicle: saline + Tween-80 + alcohol) was 124 % of control, the T/C (dose: 12.5 mg/kg/injection, schedule: Q01DX009 (ip), vehicle: saline + Tween-80 + alcohol) was 104 % of control and 97 % of control and the T/C (dose: 22.0 mg/kg/injection, schedule: Q01DX009 (ip), vehicle: saline + alcohol) was 95 % of control. For the same compound, the T/C (dose: 50.0 mg/kg/injection, schedule: Q01DX009 (ip), vehicle: saline + Tween-80 + alcohol) was 109 % of control.
NC(=S)N/N=C/c1ccncc1 was tested, and the T/C [4] was 108 % of control, the T/C [5] was 98 % of control and the T/C [6] was 101 % of control. The T/C [7] was 92 % of control.
For CC[C@]12CN3CCc4c([nH]c5ccccc45)[C@@](C(=O)OC)(c4cc5c(cc4OC)N(C=O)[C@H]4[C@@](O)(C(=O)OC)[C@H](OC(C)=O)[C@]6(CC)C=CCN7CC[C@]54[C@@H]76)C[C@H](C3)[C@H]1O2, the T/C (dose: 1.0 mg/kg/injection, schedule: Q01DX009 (ip), vehicle: saline) was 123 % of control, the T/C (dose: 4.0 mg/kg/injection, schedule: Q01DX009 (ip), vehicle: saline) was 166 % of control and the T/C (dose: 6.0 mg/kg/injection, schedule: Q01DX009 (ip), vehicle: saline) was 175 % of control.
C/C(=C(/O)c1ccc(Cl)cc1)c1nc2cc(Cl)cc([N+](=O)[O-])c2[nH]c1=O was tested, and the T/C (dose: 60.0 mg/kg/injection, schedule: Q01DX005 (ip), vehicle: Klucel (hydroxypropylcellulose) (HPC)) was 100 % of control, the T/C (dose: 120.0 mg/kg/injection, schedule: Q01DX005 (ip), vehicle: Klucel (hydroxypropylcellulose) (HPC)) was 107 % of control and the T/C (dose: 240.0 mg/kg/injection, schedule: Q01DX005 (ip), vehicle: Klucel (hydroxypropylcellulose) (HPC)) was 111 % of control.
In the case of COc1cc2ccncc2cc1O, the T/C (dose: 3.13 mg/kg/injection, schedule: Q01DX009 (ip), vehicle: water) is reported as 91 % of control, the T/C (dose: 6.25 mg/kg/injection, schedule: Q01DX009 (ip), vehicle: water) is reported as 95 % of control and the T/C (dose: 12.5 mg/kg/injection, schedule: Q01DX009 (ip), vehicle: water) is reported as 100 % of control. For the same compound, the T/C (dose: 25.0 mg/kg/injection, schedule: Q01DX009 (ip), vehicle: water) was 95 % of control and the T/C (dose: 50.0 mg/kg/injection, schedule: Q01DX009 (ip), vehicle: water) was 103 % of control.
NC(=S)N/N=C\c1nc2ccccc2c2ccccc12 was tested, and the T/C (dose: 50.0 mg/kg/injection, schedule: Q04DX002 (ip), vehicle: Klucel (hydroxypropylcellulose) (HPC)) was 99 % of control, the T/C (dose: 100.0 mg/kg/injection, schedule: Q04DX002 (ip), vehicle: Klucel (hydroxypropylcellulose) (HPC)) was 95 % of control and the T/C (dose: 200.0 mg/kg/injection, schedule: Q04DX002 (ip), vehicle: Klucel (hydroxypropylcellulose) (HPC)) was 94 % of control.
For O=[N+]([O-])c1ccc2c(ccn2C2OCC(O)C(O)C2O)c1 (configuration not stated), the T/C [5] was 94 % of control, the T/C [6] was 108 % of control and the T/C [7] was 106 % of control.
COc1cccc(C(=O)O)c1OC was tested, and the T/C [8] was 100 % of control, the T/C [9] was 100 % of control and the T/C [10] was 90 % of control.
With CC(C)(C)C(C)(C)c1ccc(OCCSCCOc2ccc(C(C)(C)C(C)(C)C)cc2)cc1 the T/C [5] was 92 % of control, the T/C [6] was 90 % of control and the T/C [7] was 87 % of control.
In the case of O=c1cccccc1O.O=c1cccccc1O.O=c1cccccc1O.[Ru], the T/C [1] is reported as 96 % of control, the T/C [2] is reported as 100 % of control and the T/C [3] is reported as 116 % of control.
In the case of CSc1nc(SC)c2cnn(Cc3ccccc3)c2n1, the T/C [11] is reported as 96 % of control, the T/C (dose: 100.0 mg/kg/injection, schedule: Q01DX005 (ip), vehicle: saline with Tween-80) is reported as 95 % of control and the T/C (dose: 200.0 mg/kg/injection, schedule: Q01DX005 (ip), vehicle: saline with Tween-80) is reported as 93 % of control.
In the case of O=S(=O)(/N=C1C=C/C(=N\S(=O)(=O)c2ccccc2)C2C/1C2(c1ccccc1)c1ccccc1)c1ccccc1 (configuration not stated), the T/C (dose: 50.0 mg/kg/injection, schedule: Q01DX001 (ip), vehicle: Klucel (hydroxypropylcellulose) (HPC)) is reported as 98 % of control, the T/C (dose: 100.0 mg/kg/injection, schedule: Q01DX001 (ip), vehicle: Klucel (hydroxypropylcellulose) (HPC)) is reported as 97 % of control and the T/C (dose: 200.0 mg/kg/injection, schedule: Q01DX001 (ip), vehicle: Klucel (hydroxypropylcellulose) (HPC)) is reported as 99 % of control.
For Cc1ccc2oc(-c3ccccc3)c(O)c(=O)c2c1, the T/C [8] was 100 % of control, the T/C [9] was 108 % of control and the T/C [10] was 95 % of control.
For NC(=O)C(Cc1ccc(O)cc1)NC(=O)OCc1ccccc1 (configuration not stated), the T/C [1] was 97 % of control, the T/C [2] was 92 % of control and the T/C [3] was 97 % of control.
With CC1(C)C2CCC(C2)C1C(=O)CCN1CCc2ccccc2C1 (configuration not stated) the T/C (dose: 12.5 mg/kg/injection, schedule: Q01DX009 (ip), vehicle: saline with Tween-80) was 106 % of control, the T/C [4] was 107 % of control and the T/C [5] was 107 % of control.
With COc1cc2cc[n+](C)c(C)c2cc1OC the T/C (dose: 12.5 mg/kg/injection, schedule: Q01DX009 (ip), vehicle: distilled water + Tween-80) was 111 % of control, the T/C (dose: 25.0 mg/kg/injection, schedule: Q01DX009 (ip), vehicle: distilled water + Tween-80) was 111 % of control and 120 % of control and the T/C (dose: 50.0 mg/kg/injection, schedule: Q01DX009 (ip), vehicle: distilled water + Tween-80) was 121 % of control and 124 % of control. The T/C (dose: 100.0 mg/kg/injection, schedule: Q01DX009 (ip), vehicle: distilled water + Tween-80) was 100 % of control and 118 % of control.
In the case of COc1cc(NCCCCCNC(C)(C)C)c2ncccc2c1, the T/C (dose: 12.5 mg/kg/injection, schedule: Q01DX005 (ip), vehicle: saline with Tween-80) is reported as 98 % of control, the T/C (dose: 25.0 mg/kg/injection, schedule: Q01DX005 (ip), vehicle: saline with Tween-80) is reported as 98 % of control and the T/C [11] is reported as 100 % of control and 103 % of control.
Cc1cc(-c2ccccc2)n(C(C(=O)c2ccccc2)c2ccccc2)n1 (configuration not stated) was tested, and the T/C [5] was 101 % of control, the T/C [6] was 106 % of control and the T/C [7] was 100 % of control.
